# Measured values as given in patent US20260275299A1, “Bioprinted Three-Dimensional Tumor Model” (ASOCIACIÓN CENTRO DE INVESTIGACIÓN EN BIOMATERIALES - CIC …, priority 2023, published 2026).
# Tested on: MCF-7 tumor models
# Test: Live/dead staining of drug-treated 3D tumor models
# Format: cell-based, human
# Conditions: 200 μM, compared to negative and positive controls
# Method: To assess cell viability in both the core tumor model and the 3D breast tumor model with the stromal compartment, calcein (targets live cells in green) and propidium iodide (targets dead cells in red) were added to the cell culture medium of the 3D constructs at a 1:100 concentration.
compound,measurement,value
CC/C(=C(\c1ccccc1)c1ccc(OCCN(C)C)cc1)c1ccccc1 [Tamoxifen],live/dead staining,Dead cells are observed in the outer regions of the models
